From patent US11549123B2, “Plant EPSP synthases and methods of use” (PIONEER HI-BRED INTERNATIONAL, INC., priority 2015, dated 2023)
Values joined by “and” are separate entries in the source; they are usually repeats but may differ in a detail not shown here. Identical values can stand only once.

Biological target: T1, Zea mays (maize) EPSPS, native, SEQ ID NO:1 (Table 10: SEQ ID NO:2) (Zea mays, UniProt O24566)
T1 sequence (O24566 with tags, fused parts or gaps): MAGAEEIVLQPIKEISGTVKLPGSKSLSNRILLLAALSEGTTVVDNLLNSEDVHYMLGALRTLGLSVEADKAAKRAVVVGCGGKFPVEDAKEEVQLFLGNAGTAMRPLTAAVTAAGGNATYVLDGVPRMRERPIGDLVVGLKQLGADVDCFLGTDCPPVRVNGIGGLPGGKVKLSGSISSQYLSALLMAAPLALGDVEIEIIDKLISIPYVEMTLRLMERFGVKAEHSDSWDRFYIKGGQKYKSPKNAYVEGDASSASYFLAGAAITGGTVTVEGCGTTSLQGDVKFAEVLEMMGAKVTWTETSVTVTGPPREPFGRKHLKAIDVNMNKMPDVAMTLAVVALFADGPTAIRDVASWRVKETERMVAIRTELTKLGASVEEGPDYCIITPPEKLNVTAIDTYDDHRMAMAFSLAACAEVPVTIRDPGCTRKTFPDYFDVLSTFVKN
Assay: EPSPS substrate saturation kinetics (PEP varied, glyphosate inhibition), native maize
Type: biochemical
Description: The amino acid sequence of mature Zea mays EPSP synthase (EPSPS) was obtained from GenBank entry CAA44974.1 (NCBI GI No. 1524383; presented herein as SEQ ID NO:2). A nucleotide sequence was created to add an N-terminal methionine and to optimize codon usage for expression in E. coli. The synthetic gene was supplied by a commercial vendor. The gene was cloned into an expression vector that provides a T7 promoter driving expression of the protein. The vector was modified to change a 6×N-terminal histidine tag to a 10×tag. The resulting coding region of the vector yields an expressed protein with the amino acid sequence shown in Table 1 (represented by SEQ ID NO:1). The coding region is preceded by an N-terminal extension represented by SEQ ID NO:3.
Whether protein production was done in BL21(DE3) or with the Tuner AroA knockout, the vector was electroporated into cells and transformants were selected for growth on LB agar containing 100 ug carbennicillin/ml. Cells were grown in Magic Medium, in which induction occurs when the medium becomes depleted of glucose. After 4 hours of growth at 37° C., cells were transferred to 30° C. and grown another 16 hrs. Pelleted cells were lysed with BPER (Pierce) protein extraction reagent containing 0.2 mg/ml lysozyme, 1 mM dithiothreitol, protease inhibitor cocktail (Sigma, bacterial cocktail) and endonuclease. Insoluble cellular debris was removed by centrifugation. EPSPS protein was purified from the soluble protein solution by affinity chromatography on the nickel form of nitrilotriacetic acid (Ni-NTA) resin (Qiagen). Protein concentration was measured by absorbance at 280 nm using an extinction coefficient of 0.676 OD/mg/ml, provided by Vector NTI.
Shikimate-3-phosphate (S3P) was prepared from cultures of Klebsiella pneumonia aroA-(ATCC 25597). Cells from a 500 ml culture grown in 2×YT were used to inoculate 6 L of minimal medium augmented with 55 uM tyrosine, 60 uM phenylalanine, 25 uM tryptophan, 0.1 uM 4-aminobenzoate and 0.1 uM 4-hydroxybenzoate (Weiss et al., 1953. J Amer Chem Soc 75:5572-5576). Accumulation of S3P was monitored by anion exchange HPLC. After about 4 days shaking at 37 C, the concentration reached ˜1 mM. S3P was purified from the culture supernatant by anion exchange chromatography in ammonium bicarbonate at pH 7.3, with gradient elution up to 0.7 M. S3P was cleanly separated from phosphate, which eluted earlier.
EPSPS activity was determined by quantifying the phosphate generated from the EPSPS reaction. Release of inorganic phosphate was coupled to reaction with 2-amino-6-mercapto-7-methylpurine ribonucleoside, catalyzed by purine-nucleoside phosphorylase (M R Webb, Proc. Natl. Acad. Sci. 89:4884-4887, 1992). The absorbance change that occurs was monitored at 360 nm, where the extinction is 11,200 M^−1 cm^−1, with a Spectramax plate reader (Molecular Devices). To determine kinetic parameters, the varied substrate was present at seven concentrations (the eighth being the blank, containing no substrate) ranging from 4 to 400 uM and the unvaried substrate present at saturation. […] Reactions were monitored with a Spectramax plate reader. […]

| SMILES | kcat (PEP varied, S3P saturating, pH 7) [min⁻¹] | kcat (Table 3, unit not given) | Km (read-out: KM (PEP), Table 3, unit inferred) [µM] | Ki [nM] | (kcat/KM)*KI (PEP as substrate, glyphosate as inhibitor) |
| --- | --- | --- | --- | --- | --- |
| C=C(OP(=O)(O)O)C(=O)O [PEP, phosphoenolpyruvate] | 1464 | 1464 | 15.7 | – | – |
| O=C(O)CNCP(=O)(O)O [glyphosate, N-phosphonomethylglycine] | – | – | – | 130 | 11.8 and 12 |
